What all share (assay): relative viability (nuclei count vs DMSO), 5 days (fraction); higher = more cells survive
Compound in one assay: CC(C)C[C@H](NC(=O)[C@H](Cc1ccccc1)NC(=O)c1cnccn1)B(O)O [Bortezomib]
In short, it runs like this:
(§1)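 Acceptance criteria were a control CV below 25% and at least one doubling per plate. Lung cancer cell lines in 1536-well plates got five library-drug doses (not always all listed) √10 apart by pinning and were left 5 days with no medium change. Viability divides treated-well nuclei by vehicle-well nuclei and is the median across plates. Nuclei were counted by MetaXpress from 4× Hoechst images.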

Compound in the next assay: COC1=CC(c2cc3ccccc3[nH]2)=N/C1=C\c1[nH]c(C)cc1C [Obatoclax]
In a few lines:
as §1

Compound in assay [1]: CC1=CC(=NN1)NC2=CC(=NC(=N2)/C=C/C3=CC=CC=C3)N4CCN(CC4)C
In a few lines:
as §1

Drawing on the supplement of paper PMC10307832, this text covers relative viability for one cell line.

Turning to NCI-H650, the relative viability in the assay with Bortezomib (0.000632 µM) was 0.97; with Bortezomib (0.002 µM) it was 1.03; with Bortezomib (0.002 µM, anchor plate), 0.902; with Bortezomib (0.006325 µM) it was 0.689; in the assay with Bortezomib (0.02 µM), 0.281; with Obatoclax (0.01 µM), 1.02. Also, the relative viability was 0.765 in the assay with Obatoclax (0.03162 µM); 0.742 with Obatoclax (0.3162 µM); 0.445 with Obatoclax (1 µM); 0.701 in assay [1] (0.08 µM); 1.15 in assay [1] (0.253 µM); 1.1 in assay [1] (0.8 µM). The figures for the relative viability in assay [1] (2.53 µM) and in assay [1] (8 µM) were 0.492 and 0.208, respectively.
